Source: US20260250318A1, “COMPOSITIONS AND METHODS FOR CROSSING THE BLOOD BRAIN BARRIER” (VOYAGER THERAPEUTICS, INC., priority 2022, published 2026)

Tests used:
brain = experiment: Maturation of TTM-001 capsid, NGS enrichment in brain of CD-1 Outbred mice; format: in vivo; settings: NGS fold-enrichment of TTM-001 matured AAV capsid variants in the brain of CD-1 Outbred mice; intravenous 1.0×10^12 VG/dose; 14 days in life; RNA; relative to non-matured TTM-001 control
Summary of the method: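 Brain enrichment read by NGS after RNA extraction and RT-PCR, expressed as fold ratio over the matching parental capsid (TTM-001 or TTM-002). Libraries, mutated around loop IV positions 449/450–466, were injected intravenously (tail vein, 1.0×10^12 VG/dose) into three female CD-1 mice; brains harvested at 14 days.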

[1] = test system: brains, heart, liver, muscle, and DRG of the NHPs; experiment: Maturation of TTM-001 and TTM-002 capsids, NGS enrichment in NHP tissues; format: in vivo; settings: NGS, relative to AAV9 control
Summary of the method: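 Variants carry mutations within and flanking the loop IV peptide insert: positions 450–466 were triplet-randomized, while positions 449–466 received low-frequency point mutations. The combined pool went into two NHPs, and each peptide was scored by NGS enrichment ratio against AAV9.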

Sequence | Fold enrichment over TTM-001 (brain) [fold] | also measured
KTINGYRSPHSKAQNQQT | 2.140 | 
KTINGYSSPHRKAQNQQT | 2.007 | 
KTINLIRSPHSKAQNQQT | 2.920 | 
KTINLIWSPHSKAQNQQT | 2.035 | 
KTINLRFSPHSKAQNQQT | 2.611 | 
KTINLSRSPHSKAQNQQT | 2.246 | 
KTINMLRSPHSKAQNQQT | 2.000 | 
KTINMRVSPHSKAQNQQT | 3.073 | 
KTINMSRSPHSKAQNQQT | 2.622 | 
KTINRHSSPHSKAQNQQT | 2.877 | 
KTINRRLSPHSKAQNQQT | 2.678 | 
KTINRVISPHSKAQNQQT | 2.169 | 
KTINSARSPHSKAQNQQT | 2.292 | 
KTINSPRSPHSKAQNQQT | 2.264 | Fold Enrichment relative to AAV9, DRG (NHP) ([1]; NHP DRG): 0.000 fold; Fold Enrichment relative to AAV9, Brain (NHP) ([1]; NHP brain): 0.000 fold; Fold Enrichment relative to AAV9, Heart (NHP) ([1]; NHP heart): 0.000 fold; Fold Enrichment relative to AAV9, Liver DNA (NHP) ([1]; NHP liver DNA): 1.554 fold; Fold Enrichment relative to AAV9, Liver RNA (NHP) ([1]; NHP liver RNA, TTM-001 and TTM-002 matured AAV capsid variants): 27.240 fold; Fold Enrichment relative to AAV9, Muscle (NHP) ([1]; NHP muscle): 0.000 fold
KTINSRFSPHSKAQNQQT | 2.032 | 
KTINTIESPHSKAQNQQT | 2.331 | 

Sequence | Fold enrichment over TTM-001 (brain) [fold] | also measured
KTINTRPSPHSKAQNQQT | 2.011 | 
KTINTSRSPHSKAQNQQT | 2.520 | 
KTIRLRGSPHSKAQNQQT | 2.408 | 
KTIRSKGSPHSKAQNQQT | 2.559 | 
KTLRRSGSPHSKAQNQQT | 2.117 | 
KTRKSSGSPHSKAQNQQT | 2.065 | 
KTRRSSGSPHSKAQNQQT | 2.438 | 
KTRSRSGSPHSKAQNQQT | 3.669 | 
KTSRCSGSPHSKAQNQQT | 2.345 | 
KTTHCSGSPHSKAQNQQT | 2.672 | 
KTWVRSGSPHSKAQNQQT | 2.186 | 
KWSPGSGSPHSKAQNQQT (peptide inserted in AAV capsid) | 2.764 | 
KYLLGSGSPHSKAQNQQT (peptide inserted in AAV capsid) | 2.253 | 
KYLSGSGSPHSKAQNQQT (peptide inserted in AAV capsid) | 4.264 | 
KYSVGSGSPHSKAQNQQT (peptide inserted in AAV capsid) | 3.365 | 
